Measured values taken from patent US6737383B1, “Herbicidal oxadiazolidines” (priority 1999, dated 2004).

What was measured:
crabgrass = assay: Test B pre/postemergence crabgrass; assay type: in vivo, Digitaria sanguinalis
In short: (§1)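 Response is a visual 0-to-10 score relative to untreated plants, where 0 means no effect and 10 means complete control, taken twelve to sixteen days after application. Treatments went onto soil at planting and onto foliage of 1- to 4-leaf plants, using a surfactant-containing non-phytotoxic solvent.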

giant foxtail = assay: Test B pre/postemergence giant foxtail; assay type: in vivo, Setaria faberii
In short: as §1

wheat = assay: Test B pre/postemergence wheat; assay type: in vivo, Triticum aestivum
In short: as §1

duck salad = assay: Test B flood test duck salad; assay type: in vivo, Heteranthera limosa
In short: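 Read-out is a visual response score from 0 (no effect) to 10 (complete control), assigned by comparison with untreated controls. Treatment was applied at the 2-leaf stage, and plants stayed in the greenhouse for twelve to sixteen days before scoring.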

[1] = Preemergence, Rate 62 g/ha, scale of 0 to 10 where 0 is no effect and 10 is complete control
[2] = Preemergence, Rate 250 g/ha, scale of 0 to 10 where 0 is no effect and 10 is complete control
[3] = Preemergence, Rate 500 g/ha, scale of 0 to 10 where 0 is no effect and 10 is complete control
[4] = Rate 62 g/ha, Postemergence, scale 0 to 10, 0 no effect, 10 complete control
[5] = Rate 125 g/ha, Postemergence, scale of 0 to 10 where 0 is no effect and 10 is complete control
[6] = Rate 250 g/ha, Postemergence, scale of 0 to 10 where 0 is no effect and 10 is complete control
[7] = Rate 125 g/ha, Pre-emergence, flood test species, scale 0 to 10 where 0 is no effect and 10 is complete control
[8] = Rate 250 g/ha, Pre-emergence, flood-test species, scale 0 to 10, 0 is no effect, 10 is complete control
[9] = Rate 500 g/ha, Pre-emergence, flood test species, scale 0 to 10 (0 no effect, 10 complete control)
[10] = Pre-emergence, Rate 1000 g/ha, scale 0 to 10 (0 no effect, 10 complete control)
[11] = Rate 500 g/ha, Postemergence, scale 0 to 10, 0 no effect, 10 complete control
[12] = Postemergence, Rate 125 g/ha, scale 0 to 10, 0 is no effect, 10 is complete control

Cc1ccccc1-n1c(=O)on(C(=O)N(c2ccncc2)C(C)C)c1=O [Compound 301]
0: Crabgrass plant response rating (crabgrass; [1]) | Crabgrass plant response rating (0 to 10 scale) (crabgrass; Preemergence, Rate 125 g/ha) | Crabgrass plant response rating (crabgrass; [2]) | Crabgrass plant response rating (crabgrass; [3]) | Crabgrass plant response rating (crabgrass; [4]) | Crabgrass plant response rating (crabgrass; [5]) | Plant response rating, Crabgrass (crabgrass; [6]) | Giant foxtail plant response rating (giant foxtail; [1]) | Giant foxtail plant response rating (0 to 10 scale) (giant foxtail; Preemergence, Rate 125 g/ha) | Giant foxtail plant response rating (giant foxtail; [2]) | Giant foxtail plant response rating (giant foxtail; [3]) | Giant foxtail plant response rating (giant foxtail; [4]) | Giant foxtail plant response rating (giant foxtail; [5]) | Plant response rating, Giant foxtail (giant foxtail; [6]) | Wheat plant response rating (wheat; [1]) | Wheat plant response rating (0 to 10 scale) (wheat; Preemergence, Rate 125 g/ha) | Wheat plant response rating (wheat; [2]) | Wheat plant response rating (wheat; [3]) | Wheat plant response rating (wheat; [4]) | Wheat plant response rating (wheat; [5]) | Plant response rating, Wheat (wheat; [6]) | Ducksalad plant response rating (duck salad; Rate 62 g/ha, headed Pre-emergence (flood test species), scale 0 to 10 (0 no effect, 10 complete control)) | Ducksalad plant response rating (duck salad; [7]) | Ducksalad plant response rating (duck salad; [8]) | Ducksalad plant response rating (duck salad; [9])

Cc1ccccc1-n1c(=O)on(C(=O)N(c2ccc3ccccc3c2)C(C)C)c1=O [Compound 306]
0: Crabgrass plant response rating (crabgrass; [1]) | Crabgrass plant response rating (0 to 10 scale) (crabgrass; Preemergence, Rate 125 g/ha) | Crabgrass plant response rating (crabgrass; [2]) | Crabgrass plant response rating (crabgrass; [3]) | Crabgrass plant response rating (crabgrass; [4]) | Crabgrass plant response rating (crabgrass; [5]) | Plant response rating, Crabgrass (crabgrass; [6]) | Giant foxtail plant response rating (giant foxtail; [4]) | Giant foxtail plant response rating (giant foxtail; [5]) | Plant response rating, Giant foxtail (giant foxtail; [6]) | Wheat plant response rating (wheat; [1]) | Wheat plant response rating (0 to 10 scale) (wheat; Preemergence, Rate 125 g/ha) | Wheat plant response rating (wheat; [2]) | Wheat plant response rating (wheat; [3]) | Wheat plant response rating (wheat; [4]) | Wheat plant response rating (wheat; [5]) | Plant response rating, Wheat (wheat; [6]) | Ducksalad plant response rating (duck salad; [10]) | Ducksalad plant response rating (duck salad; [7]) | Ducksalad plant response rating (duck salad; [8]) | Ducksalad plant response rating (duck salad; [9])
8: Giant foxtail plant response rating (giant foxtail; [2])
9: Giant foxtail plant response rating (giant foxtail; [3])
2: Giant foxtail plant response rating (giant foxtail; [1]) | Giant foxtail plant response rating (0 to 10 scale) (giant foxtail; Preemergence, Rate 125 g/ha)

CC(C)N(C(=O)n1oc(=O)n(CC2CCCC2)c1=O)c1ccc(F)cc1 [Compound 322]
4: Plant response rating, Giant foxtail (giant foxtail; [11])
0: Crabgrass plant response rating (crabgrass; [4]) | Crabgrass plant response rating (crabgrass; [5]) | Giant foxtail plant response rating (giant foxtail; [4]) | Giant foxtail plant response rating (giant foxtail; [5]) | Wheat plant response rating (wheat; [1]) | Wheat plant response rating (0 to 10 scale) (wheat; Preemergence, Rate 125 g/ha) | Wheat plant response rating (wheat; [2]) | Wheat plant response rating (wheat; [3]) | Wheat plant response rating (wheat; [4]) | Wheat plant response rating (wheat; [5]) | Plant response rating, Wheat (wheat; [6]) | Ducksalad plant response rating (duck salad; [10]) | Ducksalad plant response rating (duck salad; [7]) | Ducksalad plant response rating (duck salad; [8])
6: Giant foxtail plant response rating (giant foxtail; [1])
1: Crabgrass plant response rating (crabgrass; [1]) | Plant response rating, Giant foxtail (giant foxtail; [6])
2: Crabgrass plant response rating (0 to 10 scale) (crabgrass; Preemergence, Rate 125 g/ha) | Plant response rating, Crabgrass (crabgrass; [6])
7: Crabgrass plant response rating (crabgrass; [3])
5: Crabgrass plant response rating (crabgrass; [2]) | Plant response rating, Crabgrass (crabgrass; [11])
9: Giant foxtail plant response rating (0 to 10 scale) (giant foxtail; Preemergence, Rate 125 g/ha) | Giant foxtail plant response rating (giant foxtail; [2])
10: Giant foxtail plant response rating (giant foxtail; [3])
3: Plant response rating, Wheat (wheat; [11])

CC(C)N(C(=O)n1oc(=O)n(-c2ccc3ccccc3c2)c1=O)c1ccccc1 [Compound 332]
1: Plant response rating, Crabgrass (crabgrass; [12]) | Giant foxtail plant response rating (0 to 10 scale) (giant foxtail; Preemergence, Rate 125 g/ha)
3: Crabgrass plant response rating (crabgrass; [2]) | Plant response rating, Crabgrass (crabgrass; [11])
7: Giant foxtail plant response rating (giant foxtail; [3])
0: Crabgrass plant response rating (crabgrass; [1]) | Crabgrass plant response rating (0 to 10 scale) (crabgrass; Preemergence, Rate 125 g/ha) | Crabgrass plant response rating (crabgrass; [4]) | Plant response rating, Giant foxtail (giant foxtail; [12]) | Giant foxtail plant response rating (giant foxtail; [1]) | Giant foxtail plant response rating (giant foxtail; [4]) | Plant response rating, Giant foxtail (giant foxtail; [11]) | Plant response rating, Wheat (wheat; [12]) | Wheat plant response rating (wheat; [1]) | Wheat plant response rating (0 to 10 scale) (wheat; Preemergence, Rate 125 g/ha) | Wheat plant response rating (wheat; [2]) | Wheat plant response rating (wheat; [3]) | Wheat plant response rating (wheat; [4]) | Plant response rating, Wheat (wheat; [11]) | Ducksalad plant response rating (duck salad; [10]) | Ducksalad plant response rating (duck salad; [7]) | Ducksalad plant response rating (duck salad; [8]) | Ducksalad plant response rating (duck salad; [9])
4: Giant foxtail plant response rating (giant foxtail; [2])
5: Crabgrass plant response rating (crabgrass; [3])
